Data taken from patent US20040214799A1, “Cancerous metastasis inhibitors containing carbacyclic phosphatidic acid derivatives” (priority 2001, published 2004).
Where “and” joins values, the source holds several entries; their conditions need not be identical. Equal values may be shown once.

Experiments:
[1] = General state and body weight of B16-F0 melanoma-bearing mice; format: in vivo; details: for Body weight (g) day 0: day 0, mean ± S.D.; for Body weight (g) day 0 / Body weight (g) day 4 / Body weight (g) day 7 / Body weight (g) day 11 / Body weight (g) day 14: N 6; for Body weight (g) day 4: day 4, mean ± S.D.; for Body weight (g) day 7: day 7, mean ± S.D.; for Body weight (g) day 11: day 11, mean ± S.D.; for Body weight (g) day 14: day 14, mean ± S.D.
Method: (§1) The mixture was administered via the caudal vein. The number of grafted cells was 5×10^5 cells/body. The dose of the test substance was 0.001, 0.004 or 0.008 mg/body, and the dose of the positive control substance was 0.008 mg/body.
Observation period ranged from days 0 to 14 after the administration of the test substance. Life and death were confirmed every day during this period, and the general state was observed. Body weight measurement was performed twice a week.
The representative value of each test group was denoted as mean±standard deviation (mean±S.D.). Differences in mean values were examined as follows. The number of metastatic nodules was examined by Dunnett's multiple comparison test between the medium group and the cPA-19 group, and between the medium group and the cPA-20 group. The same was examined by the Student's T-test between the medium group and cPA-5 group. The number of metastatic lesions was examined by the Wilcoxon test using the medium group as a control. The number of animals having metastatic nodules or metastatic lesions was examined by Fisher's extract probability test using the medium group as a control. The significance levels were 1% and 5%.

[2] = tested on: Mouse malignant melanoma B16-F0; assay: B16 melanoma hematogenous lung metastasis model; format: in vivo; details: for invasion of lymphocytes into metastatic lesions observed in cases: animals with metastatic lesions; for Metastatic nodules, Abdominal cavity Adipose tissue / Metastatic nodules, Abdominal cavity Adrenal gland / Metastatic nodules, Abdominal cavity Diaphragm / Metastatic nodules, Abdominal cavity Kidney / Metastatic nodules, Abdominal cavity Ovary / Metastatic nodules, Abdominal cavity Spleen / Metastatic nodules, Thoracic cavity / Metastatic nodules, Tissue around glandual clitoris: autopsy day 14, individual animals; for Number of lung tumor nodules, Range (mininum-maximum) / Number of mice having lung tumor nodules: day 14, N 6; for Number of lung tumor nodules: day 14, mean ± S.D.; for Number of lung tumor nodules / Number of mice having metastatic lesions: N 6; for Number of mice having metastatic lesions / Findings: Invasion of lymphocytes into melanoma metastatic lesion: lung histopathology; for Findings: Invasion of lymphocytes into melanoma metastatic lesion: individual animals; for Number of metastatic lesions per section, Large size: major diameter 0.65 mm ≦ and <1.3 mm; for Number of metastatic lesions per section, Large size / Number of metastatic lesions per section, Small size / Number of metastatic lesions per section, Total: mean ± S.D.; for Number of metastatic lesions per section, Small size: major diameter <0.65 mm, left lobe and posterior lobe; on Metastatic nodules, Abdominal cavity Adipose tissue: key: −: Absent; +: Present; on Metastatic nodules, Abdominal cavity Adrenal gland: key: −: Absent; +: Present; on Metastatic nodules, Abdominal cavity Diaphragm: key: −: Absent; +: Present; on Metastatic nodules, Abdominal cavity Kidney: key: −: Absent; +: Present; on Metastatic nodules, Abdominal cavity Ovary: key: −: Absent; +: Present; on Metastatic nodules, Abdominal cavity Spleen: key: −: Absent; +: Present; on Metastatic nodules, Thoracic cavity: key: −: Absent; +: Present; on Metastatic nodules, Tissue around glandual clitoris: key: −: Absent; +: Present
Method: cPA-19 and cPA-20 were used as test substances. 0.1 w/v % BSA/PBS which was prepared by dissolving Albumin, Bovine [essentially Fatty Acid Free] (BSA, Lot No. 89H7604, Sigma chemical company) in Ca^2+ and Mg^2+ free PBS (pH 7.2), was used as a medium After preparation, the solution was sterilized by filtration using a filter (0.22 μm, Millipore). Preparation was performed when used. cPA-5 was used as a positive control substance.
A medium was added in a volume required for a test substance or a positive control substance. Dissolution was performed by ultrasonication, thereby preparing a 0.16 mg/mL solution. The 0.16 mg/mL solution containing a test substance was diluted with a medium, thereby preparing 0.08 and 0.02 mg/mL solutions. All mixtures were prepared when used.
Mice were purchased from CHARLES RIVER JAPAN. INC. The line employed herein was C57BL/6NCrj (sexuality: female). The number of animals kept in stock was 60, and the age of these animals when kept in stock was 4 weeks. […] The environmental conditions for the test system were as follows:
Mouse malignant melanoma B16-F0 was used as a tumor cell. The cell was purchased from Dainippon Pharmaceutical Co., Ltd.
Dulbecco's Modified Eagle's Media containing 10% feral bovine serum and kanamycin were used for culture. […] A medium was added to stop the action of trypsin while pipetting, thereby preparing a cell suspension. The suspension was diluted by one-tenth with a medium for culturing, followed by subculturing until it reached a volume sufficient for grafting.
A cell suspension was prepared by the same technique as the subculture method. Specifically, the cells were washed with a Ca^2+ and Mg^2+ free phosphate buffer [PBS(−)], and then harvested. The harvested cells were suspended in a 10 mL of PBS(−), thereby preparing a cell suspension. The number of cells in the cell suspension was measured to obtain the total cell number. 50 μL of the cell suspension, 100 μL of 0.4% trypan blue liquid and 100 μL of PBS(−) were mixed, and then viable count was measured. The survival rate of the cells was calculated from the viable count and total cell number.
Based on the body weight on the day of the administration of the test substance, mice were grouped into 8 test groups according to the stratified continuous randomization method as shown in Table 2 below.
as §1
On day 14 after the administration of the test substance, blood was collected from the posterior portion of the abdominal vena cava under isoflurane anesthesia. After the mice were sacrificed by blood-letting, the presence or absence of intrapleural and intraperitoneal metastatic nodules was confirmed. Lungs were extracted, and then fixed with a 10% neutral buffered formalin solution. The number of nodules resulting from lung metastasis was measured under a stereoscopic microscope (magnification: 10 times).
After the measurement of the number of nodules resulting from lung metastasis, samples were paraffin-embedded, and then thin sections were prepared. Hematoxylin eosinic-stained samples were prepared from these sections. The number of metastatic lesions in the certain portions of the left lobe and the posterior lobe was measured, and then the lesions were sorted by size. On the basis of the diameter (0.65 mm) of an object lens (×40), metastatic lesions with major diameters of less than 0.65 mm were classified as having a small size, and those with major diameters of between 0.65 mm or more and less than 1.30 mm were classified as having a large size. Furthermore, the degree of invasion of lymphocytes into metastatic lesions was confirmed qualitatively.
The representative value of each test group was denoted as mean±standard deviation (mean±S.D.). Differences in mean values were examined as follows.

[3] = 0.001 mg/body i.v., autopsy, 6 mice
[4] = 0.004 mg/body i.v., autopsy, 6 mice
[5] = 0.008 mg/body i.v., autopsy, 6 mice

Substance: carba-ΔPal-cPA [cPA-20]
- Body weight (g) day 0 ([1]; 0.001 mg/body i.v.): 15.9 ± 0.6 g
- Body weight (g) day 4 ([1]; 0.001 mg/body i.v.): 15.5 ± 0.3 g
- Body weight (g) day 7 ([1]; 0.001 mg/body i.v.): 16.1 ± 0.6 g
- Body weight (g) day 11 ([1]; 0.001 mg/body i.v.): 16.8 ± 0.4 g
- Body weight (g) day 14 ([1]; 0.001 mg/body i.v.): 17.4 ± 0.6 g
- Body weight (g) day 0 ([1]; 0.004 mg/body i.v.): 16.0 ± 0.6 g
- Body weight (g) day 4 ([1]; 0.004 mg/body i.v.): 16.0 ± 0.7 g
- Body weight (g) day 7 ([1]; 0.004 mg/body i.v.): 16.2 ± 0.6 g
- Body weight (g) day 11 ([1]; 0.004 mg/body i.v.): 16.9 ± 0.7 g
- Body weight (g) day 14 ([1]; 0.004 mg/body i.v.): 17.5 ± 0.8 g
- Body weight (g) day 0 ([1]; 0.008 mg/body i.v.): 15.9 ± 0.5 g
- Body weight (g) day 4 ([1]; 0.008 mg/body i.v.): 16.1 ± 0.8 g
- Body weight (g) day 7 ([1]; 0.008 mg/body i.v.): 16.3 ± 0.8 g
- Body weight (g) day 11 ([1]; 0.008 mg/body i.v.): 17.0 ± 0.9 g
- Body weight (g) day 14 ([1]; 0.008 mg/body i.v.): 17.7 ± 0.8 g
- effect on changes in body weight (in words) ([1]; 0.001-0.008 mg/body i.v., days 0 to 14): no effect on changes in body weight
- body weight compared with the medium group at each measurement (in words) ([1]; days 0, 4, 7, 11, 14): no significant difference
- invasion of lymphocytes into metastatic lesions observed in cases ([2]; 0.001 mg/body i.v.): 1 out of 4
- Metastatic nodules, Abdominal cavity Adipose tissue ([2]; 0.001 mg/body i.v.): −
- Metastatic nodules, Abdominal cavity Adrenal gland ([2]; 0.001 mg/body i.v.): −
- Metastatic nodules, Abdominal cavity Diaphragm ([2]; 0.001 mg/body i.v.): − (5×) and +
- Metastatic nodules, Abdominal cavity Kidney ([2]; 0.001 mg/body i.v.): −
- Metastatic nodules, Abdominal cavity Ovary ([2]; 0.001 mg/body i.v.): − (5×) and +
- Metastatic nodules, Abdominal cavity Spleen ([2]; 0.001 mg/body i.v.): − (5×) and +
- Metastatic nodules, Thoracic cavity ([2]; 0.001 mg/body i.v.): − (5×) and +
- Metastatic nodules, Tissue around glandual clitoris ([2]; 0.001 mg/body i.v.): − (5×) and +
- cases with metastatic nodules in the diaphragm [2, 3]: 1 case
- cases with metastatic nodules in the ovary [2, 3]: 1 cases
- cases with metastatic nodules in the spleen [2, 3]: 1 case
- cases with metastatic nodules in the thoracic cavity [2, 3]: 1 case
- cases with metastatic nodules in tissue around the glandual clitoris [2, 3]: 1 case
- Number of lung tumor nodules, Range (mininum-maximum) ([2]; 0.001 mg/body i.v.): 17-112
- Number of mice having lung tumor nodules ([2]; 0.001 mg/body i.v.): 6
- Number of lung tumor nodules ([2]; 0.001 mg/body i.v.): 58 ± 40
- Number of mice having metastatic lesions ([2]; 0.001 mg/body i.v.): 4
- Findings: Invasion of lymphocytes into melanoma metastatic lesion ([2]; 0.001 mg/body i.v.): − (3×) and ++
- Number of metastatic lesions per section, Large size ([2]; 0.001 mg/body i.v.): 1.2 ± 1.3
- Number of metastatic lesions per section, Small size ([2]; 0.001 mg/body i.v.): 3.2 ± 3.5
- Number of metastatic lesions per section, Total ([2]; 0.001 mg/body i.v.): 4.3 ± 4.6
- number of metastatic nodules of B16-F0 in the lungs versus medium group (in words) ([2]; 0.004 mg/body i.v.): significant decrease in the number of metastatic nodules
- invasion of lymphocytes into metastatic lesions observed in cases ([2]; 0.004 mg/body i.v.): no invasions were observed in 1 case
- Metastatic nodules, Abdominal cavity Adipose tissue ([2]; 0.004 mg/body i.v.): −
- Metastatic nodules, Abdominal cavity Adrenal gland ([2]; 0.004 mg/body i.v.): −
- Metastatic nodules, Abdominal cavity Diaphragm ([2]; 0.004 mg/body i.v.): −
- Metastatic nodules, Abdominal cavity Kidney ([2]; 0.004 mg/body i.v.): −
- Metastatic nodules, Abdominal cavity Ovary ([2]; 0.004 mg/body i.v.): −
- Metastatic nodules, Abdominal cavity Spleen ([2]; 0.004 mg/body i.v.): − (5×) and +
- Metastatic nodules, Thoracic cavity ([2]; 0.004 mg/body i.v.): −
- Metastatic nodules, Tissue around glandual clitoris ([2]; 0.004 mg/body i.v.): −
- cases with metastatic nodules in the spleen [2, 4]: 1 case
- metastatic nodules in the thoracic cavity [2, 4]: no metastatic nodules were observed
- Number of lung tumor nodules, Range (mininum-maximum) ([2]; 0.004 mg/body i.v.): 0-4
- Number of mice having lung tumor nodules ([2]; 0.004 mg/body i.v.): 2 &
- Number of lung tumor nodules ([2]; 0.004 mg/body i.v.): 1 ± 2
- Number of mice having metastatic lesions ([2]; 0.004 mg/body i.v.): 1 &&
- Findings: Invasion of lymphocytes into melanoma metastatic lesion ([2]; 0.004 mg/body i.v.): −
- Number of metastatic lesions per section, Large size ([2]; 0.004 mg/body i.v.): 0 ± 0!!
- Number of metastatic lesions per section, Small size ([2]; 0.004 mg/body i.v.): 0.2 ± 0.4
- Number of metastatic lesions per section, Total ([2]; 0.004 mg/body i.v.): 0.2 ± 0.4!!
- metastasis / number of metastatic nodules in the lungs versus medium group (in words) ([2]; 0.008 mg/body i.v.): almost completely suppressed metastasis
- Metastatic nodules, Abdominal cavity Adipose tissue ([2]; 0.008 mg/body i.v.): −
- Metastatic nodules, Abdominal cavity Adrenal gland ([2]; 0.008 mg/body i.v.): −
- Metastatic nodules, Abdominal cavity Diaphragm ([2]; 0.008 mg/body i.v.): −
- Metastatic nodules, Abdominal cavity Kidney ([2]; 0.008 mg/body i.v.): −
- Metastatic nodules, Abdominal cavity Ovary ([2]; 0.008 mg/body i.v.): −
- Metastatic nodules, Abdominal cavity Spleen ([2]; 0.008 mg/body i.v.): − (5×) and +
- Metastatic nodules, Thoracic cavity ([2]; 0.008 mg/body i.v.): −
- Metastatic nodules, Tissue around glandual clitoris ([2]; 0.008 mg/body i.v.): −
- cases with metastatic nodules in the spleen [2, 5]: 1 case
- metastatic nodules in the thoracic cavity [2, 5]: no metastatic nodules were observed
- Number of lung tumor nodules, Range (mininum-maximum) ([2]; 0.008 mg/body i.v.): 0-1
- Number of mice having lung tumor nodules ([2]; 0.008 mg/body i.v.): 1 &&
- Number of lung tumor nodules ([2]; 0.008 mg/body i.v.): 0 ± 0
- Number of mice having metastatic lesions ([2]; 0.008 mg/body i.v.): 0 &&
- Number of metastatic lesions per section, Large size ([2]; 0.008 mg/body i.v.): 0 ± 0!!
- Number of metastatic lesions per section, Small size ([2]; 0.008 mg/body i.v.): 0 ± 0!
- Number of metastatic lesions per section, Total ([2]; 0.008 mg/body i.v.): 0 ± 0!!
- number of mice having intrapleural or intraperitoneal metastatic nodules, dose dependence (in words) ([2]; 0.001, 0.004 and 0.008 mg/body i.v.): decreased as the dose increased
- action of suppressing the lung metastasis of B16-F0 compared with cPA-5 ([2]; 0.004 and 0.008 mg/body i.v.): stronger than that of cPA-5
